From US5041542A, “Substituted pyrimido[5,4-d]pyrimidine nucleosides” (Nucleic Acid Research Institute, priority 1988, dated 1991)
Values after ≈ are worked out from the molar mass of the structure shown. Where two headings read alike, the source gives them in different places.

Experiments:
[1] = test system: de novo purine biosynthesis in WI-L2 cells; assay: Inhibition of de novo purine biosynthesis ([14C]formate incorporation); type: cell-based, human; details: for activity at 50 µM: pre-incubation 8 h
Method: Compounds of the invention were also tested for certain biochemical properties. Compounds of the invention were studied for their effect on de novo purine biosynthesis by observing inhibition of incorporation of [^14 C]formate into the acid-soluble fraction of WI-L2 cells (see Table 3). […] However, 8 and 14 (100 μM) were not cytotoxic to WI-L2 cells deficient in adenosine kinase activity.
A normal lymphoblast phenotype B cell line, WI-L2 was used. The enzyme-deficient cell lines used in vitro are: HPRT-, a hypoxanthine-guanine phosphorbosyl transferase (EC 2.4.2.8)deficient line and AK-, an adenosine kinase (EC 2.7.1.20)deficient line. Cells were cultured in RPMI 1640 medium containing 5% dialyzed fetal bovine serum, 20 mM Na HEPES, pH 7.5 and 2 mM glutamine and maintained in log phase growth between 0.5 and 12×10^5 cells/mL. The mutant cell lines were periodically reselected by treatment with 6-thioguanine (HPRT-) or tubercidin (AK-).
(§1) . Inhibition of de novo purine biosynthesis: WI-L2 or adenosine kinase-deficient cells were preincubated at 37° C. with drug for various time periods prior to labeling with [^14 C]formate. Enzyme Assays: Adenosine kinase inhibition studies were accomplished by the filter binding assay method. Inhibition studies were done at 37° C. with an assay mixture containing 4 mM ATP, 1.5 mM MgCl2, 5 or 10 μM [8-^14 C] adenosine (50 mCi/mmol) and 100 mM Tris-maleate, pH 5.5. To prevent the enzymatic breakdown of adenosine, erythro-9-(2-hydroxy-3-nonyl)adenine (EHNA) was added to the cell-free WI-L2 lysate to give 5 μM final assay concentration. The assay was started by the addition of protein. The amount of enzyme, time of assay and sampling volume were adjusted to give acceptable conversion of [8-^14 C] adenosine to [8-^14 C]AMP. Each DE-81 filter was spotted with a constant sampling volume and immersed in H 2 O (4 L) to terminate the reaction. Filters were washed three times with H2 O (4 L) and once with EtOH (100 mL). Dry filters were placed in scintillation vials and radioactivity was counted with 10 mL toluene-based scintillation cocktail.
De novo purine biosynthesis was measured by the incorporation of ^14 C-formate into cellular purine nucleotides or excreted purines after pre-incubation with compound.

[2] = test system: pyrimidine (CTP + UTP) and purine (ATP + GTP) nucleoside triphosphates; assay: 14C-bicarbonate incorporation into acid soluble pyrimidine and purine nucleoside triphosphates; type: cell-based
Description: Comparative effect of compounds on ^14 C-bicarbonate
incorporation into acid soluble pyrimidine (PyrTP,
CTP + UTP) and purine (PurTP, ATP + GTP) nucleoside

[3] = test system: herpes simplex virus type 2 (MS strain); assay: In vitro antiviral activity, herpes simplex virus type 2 (virus rating); type: cell-based; details: Vero cells; VR >1.0 marked, 0.5 to 0.9 moderate, <0.5 weak or no activity
[4] = test system: vaccinia virus (Elstree strain); type: cell-based; details: HeLa cells; VR >1.0 marked, 0.5 to 0.9 moderate, <0.5 weak or no activity
[5] = test system: parainfluenza 3 (C243 strain); assay: In vitro antiviral activity, parainfluenza 3 (virus rating); type: cell-based; details: Vero cells; VR >1.0 marked, 0.5 to 0.9 moderate, <0.5 weak or no activity
[6] = test system: Herpes 2, parainfluenza 3 and Vaccinia; type: cell-based; details: tested in parallel with ARPP (8)
L1210 cells = assay: In vitro cytotoxicity, L1210; type: cell-based, murine; details: Mus musculus, L1210, 72 h; 3 days, 37° C., MTT; read-out: Antitumor (ID50) L1210
Method: (§2) ^b (ID50) inhibitory dose is the μM concentration of the
(§3) In vitro cytotoxicity analysis was performed by using the following cell lines: L1210 (a murine leukemia), WI-L2 (a human B-lymphoblast), and LoVo/L (a human colon carcinoma). Cells were grown in RPMI 1640 medium supplemented with 10% fetal bovine serum, 20 mM HEPES, pH 7.4, and 2 mM glutamine. The cytotoxicity determinations were carried out in 96-well microtiter dishes containing a starting number of 5-10×10^3 cells per well and 0.1-100 μM concentrations of the compounds in triplicate wells. L1210 and WI-L2 were incubated with the compounds at 37° C. for 3 days, while Lovo/L was incubated for 5 days. After this time period, 25 μL of 4 mg/mL 3-(4,5-dimethylthiazol-2-yl)-2,5-diphenyltetrazolium bromide was added to each well and incubation was continued for 2 to 5 h. The formazan product was dissolved in isopropanol containing 0.04M HCl and the absorbance was determined with a microtiter plate reader. The absorbance was proportional to the number of cells.

WI-L2 cells = assay: In vitro cytotoxicity, WI-L2; type: cell-based; details: Homo sapiens, WIL2, 72 h; 3 days, 37° C., MTT; read-out: Antitumor (ID50) WI-L2
Method: as §2, §3

LoVo/L cells = assay: In vitro cytotoxicity, LoVo/L; type: cell-based; details: Homo sapiens, 120 h, 5 days, 37° C., MTT, read-out: Antitumor (ID50) LoVo/L
Method: as §2, §3

L1210 = assay: In vivo antitumor activity against L1210 in BDF1 mice; details: qd; for T/C: day 1, at maximum soluble dosage
Method: Compounds 8, 11, 14 and 17 were comparatively evaluated in vivo for efficacy against L1210 in BDF1 mice.
Mice were inoculated i.p. with 1×10^6 L1210 cells 24 hr before qd, day 1, i.p. drug delivery. Drugs were solubilized in water and delivered at the rate of 0.01 ml/g mouse weight. Then control mice/drug were injected i.p. with equivalent volumes of a 0.9% solution of NaCl, the means and standard deviations reflecting the postinoculation life spans of these mice ranged from 6.30±0.48 to 6.60±0.97 days.

[7] = delivered at 0.01 ml/g mouse weight
physchem = details: water
[8] = Lethal toxicity in treated mice; details: i.p., maximum soluble dosage
[9] = Anomerization in aqueous solution (reverse-phase HPLC); type: physicochemical
Method: This would be expected where the rate of anomerization is slow compared to the rate of deamination.
The compounds of the invention are capable of crossing the cell membrane, and activated to the 5'-phosphate, thus causing the inhibition of the de novo purine biosynthesis.
as §1, with “HPLC Analysis: Sample components were separated with an LKB model 2150 gradient HPLC system at ambient temperature on an Altex Ultrashere-ODS reverse phase column (Beckman) developed with a linear gradient of buffer A (10 mM KPO4 ', pH 3.83) to 20% component B (60% aqueous CH3 CN) at a combined flow rate of 1.0 mL/min over 15 min. Ultraviolet (UV) absorbance was monitored with an LKB model 2140 diode array detector. Inhibition of” for “. Inhibition of”

[10] = Homo sapiens, WIL2, cell, read-out: de novo purine biosynthesis, % of control, cell, 50 μM
[11] = Homo sapiens, WIL2, media (excreted purines), read-out: de novo purine biosynthesis, % of control, media, 50 μM
[12] = read-out: PurTP, % control, 50.0 μM
[13] = read-out: PydTP, % control, 50.0 μM

Structure (SMILES)	activity at 50 µM [1, 10]	activity at 50 µM [1, 11]	PurTP, 50.0 μM [2]	PyrTP, 50.0 μM [2]	CAA (carbamyl aspartate), 50.0 μM ([2]; zero = undetectable)	activity at 50 µM [2, 12]	activity at 50 µM [2, 13]	Antiviral (VR) HSV2 [3]	Antiviral (VR) VV [4]	Antiviral (VR) PI3 [5]	Antiviral activity in cell culture [6]	IC50 (L1210 cells)	IC50 (WI-L2 cells)	IC50 (LoVo/L cells)	T/C (L1210)	Maximum watersoluble dosage [7]	solubility (physchem)	other results
CN(C)c1ncnc2c(N[C@@H]3O[C@H](CO)[C@@H](O)[C@H]3O)ncnc12 [Compound 27, 4-Dimethylamino-8-(β-D-ribofuranosylamino)pyrimido[5,4-d]pyrimidine]	50.7%	85.8%	40581 cpm/10^6 cells	10177 cpm/10^6 cells	0 cpm/10^6 cells	68.2%	46.9%											
Nc1ncnc2c(N[C@H]3O[C@H](CO)[C@@H](O)[C@H]3O)ncnc12 [Compound 11, 4-Amino-8-(α-D-ribofuranosylamino)pyrimido[5,4-d]pyrimidine]								0.2 VR	1.0 VR	1.4 VR	antiviral activity	0.38 µM	0.25 µM	1 µM	138	22 mg/kg/inj.	2.2 mg/mL (≈ 7.48 mM)	Postinoculation Lifespan (% T/C), 22 mg/kg/inj. (L1210; 22 mg/kg/inj. i.p., day 1): 138 % T/C; lethal toxicity at maximum soluble dosage [8]: Neither drug was lethally toxic at its maximum soluble dosage
Nc1ncnc2c(N[C@@H]3O[C@H](CO)[C@@H](O)[C@H]3O)nc(Cl)nc12 [Compound 37, 4-Amino-6-chloro-8-(β-D-ribofuranosylamino)pyrimido[5,4-d]pyrimidine]	16.4%	43.4%																PurTP, 15.0 μM ([2]; 15.0 μM): 39833 cpm/10^6 cells; PyrTP, 15.0 μM ([2]; 15.0 μM): 13454 cpm/10^6 cells; CAA (carbamyl aspartate), 15.0 μM ([2]; 15.0 μM, zero = undetectable): 0 cpm/10^6 cells; activity at 15 µM ([2]; read-out: PurTP, % control, 15.0 μM): 66.9%; activity at 15 µM ([2]; read-out: PydTP, % control, 15.0 μM): 62%
Nc1nc(N[C@@H]2O[C@H](CO)[C@@H](O)[C@H]2O)c2ncnc(N)c2n1 [Compound 35, 4,6-Diamino-8-(β -D-ribofuranosylamino)pyrimido[5,4-d]pyrimidine]	91.2%	89.8%	58130 cpm/10^6 cells	15267 cpm/10^6 cells	0 cpm/10^6 cells	97.7%	70.4%											
O=c1[nH]cnc2c(N[C@@H]3O[C@H](CO)[C@@H](O)[C@H]3O)ncnc12 [Compound 21, 8-(β-D-Ribofuranosylamino)pyrimido[5,4-d]pyrimidin-4(3H)-one]	98.2%	106%	54484 cpm/10^6 cells	15691 cpm/10^6 cells	0 cpm/10^6 cells	91.5%	72.3%											anomeric equilibration in solution [9]: equilibrated from pure β-anomer into a mixture of α- and β-anomers
COc1ncnc2c(N[C@H]3O[C@H](CO)[C@@H](O)[C@H]3O)ncnc12 [Compound 17, 4-Methoxy-8-(α-D-ribofuranosylamino)pyrimido[5,4-d]pyrimidine]								0.1 VR	0.9 VR	0.7 VR	antiviral activity	2.9 µM	2.5 µM	18.7 µM	116	37 mg/kg/inj.	3.7 mg/mL (≈ 12 mM)	Postinoculation Lifespan (% T/C), 37 mg/kg/inj. (L1210; 37 mg/kg/inj. i.p., day 1): 116 % T/C; purine de novo assay, short term ([1]; 4 h): inactive; activity at 25 µM ([1]; Homo sapiens, WIL2, cell, 25 μM, pre-incubation 4 h, read-out: de novo purine biosynthesis, % of control, cell, 25 μM): 98.2%; purine de novo assay, longer incubation times ([1]; separate assays, longer incubation times): demonstrated the inhibitory activity
